Measured values published in EP0238982B1, “Anticholinergic compounds, pharmaceutical compositions and method of treatment” (UNIVERSITY OF FLORIDA, priority 1986, dated 1987).
Where two headings read alike, the source gives them in different places.

Key:
[1] = Enzymatic hydrolysis in rat liver homogenate at 37°C (HPLC); format: in vitro ADME, Sprague-Dawley rats; details: for Rates of hydrolysis in liver homogenate K ± S.E.: 20% rat liver homogenate; for half-life / half-life at 6000 µM: rat, liver homogenate
Method: The liver homogenate was prepared by the following method. Two Sprague-Dawley rats were killed by decapitation, and the livers were removed, weighed and homogenized in a tissue homogenizer in 0.11 M aqueous phosphate buffer, pH 7.4, to make 20% liver homogenate. The homogenate was centrifuged and the supernatant was used for the test. 100 l of 0.6 M solution of the ester in methanol was mixed with 10 ml of the homogenate, previously equilibrated to 37°C in a water bath, to result in an initial concentration of 6 x 10⁻³ mol/liter⁻¹. samples of 1.0 ml were withdrawn at time intervals from the medium, added immediately to 3 ml ice-cold acetonitrile, shaken vigorously, and placed in a freezer. When all samples had been collected, they were centrifuged, and each supernantant was analyzed by HPLC.

[2] = Hydrolysis of tertiary ethyl ester (2) and formation of its degradation product (7) at pH 12, 37°C (HPLC); format: physicochemical; parameters: dose or concentration left out as unconfirmed; details: 0.01 N NaOH pH at 37°C, read-out: t 1/2, hydrolysis (disappearance) of tertiary ethyl ester (2)
Method: The mobile phase used for the separation of compound (2) and its degradation product, the half ester (7) consisted of 32% MeCN, 0.01M KH₂PO₄, 0.004M 1-octanesulfonic acid sodium salt and 0.1% acetic acid. At flow rate of 1.5 ml/min (2) and (7) have retention times of 9 min and 4.6 min, respectively.
100 microliters of a freshly prepared solution of compound (2) in methanol was added to 10 ml buffered solution (pH 12), previously equilibrated to 37°C in a water bath to result in an initial concentration of 6 x 10⁻³ mol liter⁻¹. Samples of 1 ml were taken at time intervals and mixed with 3 ml of acetonitrile. 100 microliters of the collected samples were injected and disappearance of (2) and formation of (7) was followed by HPLC.

[3] = tested on: carbachol-induced spasms of strips of ileum; assay: Anticholinergic activity in vitro: inhibition of carbachol-induced spasms of guinea pig ileum strips; format: cell-based; details: for Kb: Cavia porcellus
Method: The anticholinergic activity of all the new compounds was investigated in vitro by studying the inhibitory action of the drugs on carbachol-induced spasms of strips of ileum from freshly killed guinea pigs. The terminal ileum from guinea pig (200-500 g) was cut into 2-3 cm strips and suspended in freshly prepared Tyrode's solution in 40 ml organ bath. The solution was aerated with 95% oxygen and 5% carbon dioxide at 37°C. A tension of 1 g was applied to the tissue, and cumulative-response curves recorded with carbachol until constant responses were obtained. A concentration of the antagonist was then added to the bath and after 10 seconds, further concentration response curves to carbachol were established. This procedure was then repeated using increasing concentrations of the antagonist. EC₅₀ was calculated for carbachol alone and for carbachol in the presence of the various antagonist concentrations. Atropine was used as standard for comparison. The PA₂ was calculated as follows: PA₂ = log ((A)/(a)-1) -log [antagonist] [formula] A = EC₅₀ or carbachol in presence of the antagonist a = EC₅₀ for carbachol alone before adding antagonist

[4] = Enzymatic hydrolytic cleavage rates in human plasma at 37°C (HPLC); format: in vitro ADME; parameters: half-life: dose or concentration left out as unconfirmed; details: for half-life: read-out: half lives (t 1/2) (converted)
Method: (§1) The chromatographic analysis was performed in a system consisting of LCD/Milton Roy Consta Metric III metering pump and LCD UV III Monitor Detector operated at 254 nm. A 30 cm x 3.9 mm (internal diameter) reverse phase ASI/U Bondpak C18 column operated at ambient temperature was used for the analysis. The mobile phase consisted of 32% acetonitrile in 0.01 M potassium dihydrogen phosphate, 0.004 M 1-octanesulfonic acid, sodium in 0.1% acetic acid at a flow rate of 2.3 ml/min.
Freshly collected plasma was used which contained about 80% plasma diluted with anticoagulant citrate phosphate dextrose solution, U.S.P.
A 100 µl volume of a freshly prepared solution of the compound in methanol was added to 10 ml plasma, previously equilibrated a 37°C in a water bath, and mixed thoroughly to result in an initial concentration of 6 x 10⁻³ mol. liter⁻¹. One ml samples of plasma were withdrawn from the test medium, mixed immediately with 3 ml ice cold acetonitrile, centrifuged and the supernatant analyzed by HPLC. The first order hydrolytic rate constant was determined by following the disappearance of the compound as function of time.

[5] = Hydrolytic rate constants in aqueous buffered solution at pH 12, 37°C (HPLC); format: physicochemical; details: for observed First Order Hydrolytic Rate Constants (k) K ± S.E: average of three runs ± S.E.M.
Method: A high pressure liquid chromatography (HPLC) method was used for the determination of rate of hydrolysis of the newly prepared tropanyl esters in aqueous buffered solution at pH 12.0 and in human plasma.
as §1
Sodium hydroxide and sodium dibasic phosphate were used to prepare the buffer at pH 12. The ionic strength was maintained at 0.1 M with sodium chloride.
One hundred microliters of a freshly prepared solution of the compound in methanol was added to 10 ml buffered solution, previously equilibrated to 37°C in a water bath and mixed thoroughly to make an initial concentration of 6 x 10⁻³ mol. liter⁻¹. Samples of 100 µl were injected into the column at various time intervals. […] A mobile phase of 40% acetonitrile was used to separate compounds 4 and 6 at a flow rate of 2.0 ml/min.
The previous method adapted for the hydrolysis of compounds 1, 2, 3 and 5 was used for the determination of rate of hydrolysis of compounds 4, 6 and 7. In case of compounds 4 and 6, the mobile phase is 40% acetonitrile, 0.01 M KH₂PO₄, 0.04M 1-octanesulfonic acid sodium salt and 0.1% HAC, at a flow rate 2 ml/min.

[6] = Hydrolysis of tropanyl hydrogen phenyl malonate (7) to the dibasic acid (8) at pH 12, 37°C (HPLC); format: physicochemical; details: 0.01 n naoh; 0.01 N sodium hydroxide, pH 12 at 37°C; read-out: t 1/2, hydrolysis (disappearance) of (7)
Method: The previously described method for the determination of rate of hydrolysis of compound (2) was followed for the determination of hydrolysis of compound (7).
The disappearance of compound (7) was followed by HPLC.
The concentration of the formed dibasic acid was determined by HPLC. 15% acetonitrile, 0.01M KH₂ PO₄ and 0.1% acetic acid was used as a mobile phase. At a flow rate of 2 ml/min, the product has a retention time of 4 min.
The collected samples after determination of rate of disappearance of compound (7) were used for the determination of rate of formation of the hydrolysis product (8). 100 microliters of the sample was injected and the formation of the product was followed by HPLC.

[7] = pH 7.4, 20% rat liver homogenate, pH 7.4, 37°C, read-out: t 1/2 in liver homogenate
[8] = pH 7.4, rat liver homogenate, 37°C, average of three runs, read-out: t 1/2 (Min) RAT LIVER HOMOGENATE, 37°C
[9] = guinea pig ileum, against carbachol, average of two experiments (compounds 1 and 4: three), read-out: PA2 (converted)
[10] = 0.01 N sodium hydroxide at pH 12.0, at 37°C
[11] = 0.01 n naoh buffer, 0.01 N sodium hydroxide at pH 12.0, at 37°C, read-out: half-life (t 1/2)
[12] = aqueous buffer, aqueous solution pH 12, 37°C, average of three runs, read-out: t 1/2 (Min) AQUEOUS SOLN, pH 12, 37°C
[13] = 0.01 m naoh buffer, 0.01 M sodium hydroxide at pH 12 and 37°C, read-out: half lives (t 1/2)
[14] = method of Example 19, quaternary methiodide soft esters, read-out: PA2 QUATERNARY AMINE (converted)

| SMILES | Rates of hydrolysis in liver homogenate K ± S.E. ([1]; pH 7.4, 37°C) | half-life [1, 7] | half-life [1, 8] | Kb [3, 9] | kobsd HUMAN PLASMA, 37°C [4] | observed first order hydrolytic rate constants (K) ± S.E.M. [4] | half-life ([4]; human plasma at 37°C) | observed First Order Hydrolytic Rate Constants (k) K ± S.E [5, 10] | half-life [5, 11] | half-life [5, 12] | half-life [5, 13] | further results |
| --- | --- | --- | --- | --- | --- | --- | --- | --- | --- | --- | --- | --- |
| CCOC(=O)C(C(=O)OC1CC2CCC(C1)N2C)c1ccccc1 (racemic) [Compound 2, Ethyl (±)-α-(carboxy)-8-methyl-8-azabicyclo[3·2·1]oct-3-yl-benzeneacetate] | 1.99 ± 0.996 x 10^-1 min^-1 | 3.48 min | 3.48 min | 191 nM | 15.0 ± 0.3 x 10^-5 min^-1 | 15.0 ± 0.3 x 10^-5 min^-1 | 77.4 h | 16.9 ± 0.15 x 10^-2 min^-1 | 4.08 min | 4.08 min |  | half-life [2]: 4.19 ± 0.14 min |
| COC(=O)C(C(=O)OC1CC2CCC(C1)N2C)c1ccccc1 (racemic) [Compound 1, Methyl (±)-α-(carboxy)-8-methyl-8-azabicyclo[3·2·1]oct-3-yl-benzeneacetate] |  |  |  | 282 nM |  |  |  | 1.43 ± 0.12 x 10^-1 min^-1 | 4.8 min | 4.8 min |  |  |
| CN1C2CCC1CC(OC(=O)C(C(=O)OC1CCCCC1)c1ccccc1)C2 (racemic) [Compound 4, cyclohexyl (±)-α-(carboxy)-8-methyl-8-azabicyclo-[3.2.1]oct-3-yl-benzeneacetate] | 37.0 ± 0.3 x 10^-3 min^-1 | 18.7 min | 18.7 min | 257 nM | 4.44 ± 0.4 x 10^-5 min^-1 | 4.44 ± 0.4 x 10^-5 min^-1 | 270 h |  |  | 182 min | 182 min |  |
| CC(C)OC(=O)C(C(=O)OC1CC2CCC(C1)N2C)c1ccccc1 (racemic) [Compound 3, isopropyl (±)-α-(carboxy)-8-methyl-8-azabicyclo[3·2·1]oct-3-yl-benzeneacetate] | 97.2 ± 0.76 x 10^-3 min^-1 | 7.12 min | 7.12 min | 28.2 nM | 6.27 ± 0.3 x 10^-5 min^-1 | 6.27 ± 0.3 x 10^-5 min^-1 | 186 h | 30 ± 0.77 x 10^-3 min^-1 | 22.8 min | 22.8 min |  |  |
| CCOC(=O)C(C(=O)OC1CC2CCC(C1)[N+]2(C)C)c1ccccc1 (racemic) [Compound 5, Ethyl (±)-α-(carboxy)-8-methyl-8-azabicyclo[3·2·1]oct-3-yl benzeneacetate methiodide] | 10.5 ± 0.28 x 10^-2 min^-1 |  |  | 13.8 nM |  |  | 82.2 h |  | 0.85 min | 0.85 min |  | half-life at 6000 µM [1, 7]: 6.6 min; half-life at 6000 µM [1, 8]: 6.6 min; Kb [3, 14]: 14.1 nM; observed first order hydrolytic rate constants (K) ± S.E.M. ([4]; human plasma at 37°C, compound 2 average of 4 runs, the rest 3 runs): 14.1 ± 0.6 x 10^-5 min^-1 |
| CC(C)OC(=O)C(C(=O)OC1CC2CCC(C1)[N+]2(C)C)c1ccccc1 (racemic) [VIc, isopropyl (±)-α-(carboxy)-8-methyl-8-azabicyclo[3·2·1]oct-3-yl-benzeneacetate methiodide] |  |  |  |  |  |  |  |  |  |  |  | Kb [3, 14]: 24.5 nM |
| CN1C2CCC1CC(OC(=O)C(C(=O)O)c1ccccc1)C2 (racemic) [Compound 7, (±)-α-(carboxy)-8-methyl-8-azabicyclo-[3·2·1]oct-3-yl benzeneacetic acid] |  |  |  | 631 nM |  |  |  |  |  | 350 min | 350 min | half-life [6]: 331 ± 4.31 min |
| CN1[C@@H]2CC[C@H]1C[C@@H](OC(=O)C(CO)c1ccccc1)C2 (some centres unmarked) [Atropine, reference compound] |  |  |  |  |  |  |  |  |  |  |  | PA2 [3]: 8.29; PA2 TERTIARY AMINE [3]: 8.29 |
| C[N+]1(C)C2CCC1CC(OC(=O)C(C(=O)OC1CCCCC1)c1ccccc1)C2 (racemic) [Compound 6, Cyclohexyl (±)-α-(carboxy)-8-methyl-8-azabicyclo-[3·2·1]oct-3-yl benzeneacetate methiodide] | 10.4 ± 0.23 x 10^-3 min^-1 | 66.8 min | 66.8 min | 44.7 nM | 6.31 ± 0.8 x 10^-5 min^-1 | 6.31 ± 0.8 x 10^-5 min^-1 | 183 h |  |  | 1.28 min | 1.28 min |  |
